Experimental findings from patent publication US20260199359A1 (INCYTE CORPORATION, priority 2021, published 2026) are described below.

“And” between values parts separate entries of the source, which are not always exact repeats. Identical values can stand only once. Like-named read-outs stand apart in the source and are kept apart here.

Data set [1] can be described thus: Apparent pH of solvent systems before API addition and of saturated supernatant. It counts as physicochemical.
Data set [2] in a line: Compatibility / immiscibility of bases and trolamine levels in solvent systems. It counts as physicochemical.
Setting [3] is: SSCR01 with 3.50% w/w of the named base, before API addition.
[4] abbreviates: SSCR01 with 3.50% w/w of the named base, saturated with ruxolitinib phosphate.
[5] abbreviates: SSNA01 with 3.50% w/w of the named base, before API addition.
The mark [6] stands for this setting: SSNA01 with 3.50% w/w of the named base, saturated with ruxolitinib phosphate.
The mark [7] stands for this setting: SSAG01 with 3.50% w/w of the named base, before API addition.
[8] abbreviates: SSAG01 with 3.50% w/w of the named base, saturated with ruxolitinib phosphate.

As to `CCC(N)(CO)CO` [2-Amino-2-ethyl-1,3-propanediol], the results for the “Vehicle pH” value in data set [1] (setting [3]) and in data set [1] (setting [5]) were 10.38 and 10.27, respectively. The “Supernatant pH” value in data set [1] (setting [4]) turned out to be 3.29; in data set [1] (setting [6]) it was 4.99. For the same molecule, in data set [2] (SSAG01), the “Compatibility of base with solvent system” value (from here on “Compatibility of base”) is “Incompatible”. Moreover, in data set [2] (SSAG01), the “compatibility of the base with the solvent system” value (“compatibility of the base” for short) was “incompatible”.
Consider `CC(C)(N)CO` [2-Amino-2-methyl-1-propanol], for which the results for the “Vehicle pH” value in data set [1] (setting [7]), in data set [1] (setting [3]) and in data set [1] (setting [5]) were 12.17, 11.44 and 10.45, respectively. In addition, the “Supernatant pH” value in data set [1] (setting [8]) stood at 4.34; in data set [1] (setting [4]) it was 3.61; in data set [1] (setting [6]), 4.98.
Take `OCCNCCO` [Diethanolamine]: the “Vehicle pH” value in data set [1] (setting [3]) came out at 10.88. Further, the “Vehicle pH” value in data set [1] (setting [5]) is given as 10.30. Besides, in data set [2] (SSAG01), the “Compatibility of base” value is reported as “Incompatible” and the “compatibility of the base” value was “incompatible”.
Regarding `CC(O)CNCC(C)O` (centres unmarked) [Diisopropanolamine], the “apparent pH of SSAG01 following API addition with the named base” value in data set [1] (SSAG01, after ruxolitinib phosphate addition) worked out at 4.29. Moreover, the “Vehicle pH” value in data set [1] (setting [7]) is 11.31; in data set [1] (setting [3]), 10.63; in data set [1] (setting [5]), 9.89. Also, the “Supernatant pH” value in data set [1] (setting [8]) is 4.29; in data set [1] (setting [4]), 3.49; in data set [1] (setting [6]), 6.51.
As for `CC(C)NC(C)C` [Diisopropylamine], in data set [1], the “Supernatant pH” value was 4.80 and 4.53; the “Vehicle pH” value was 10.62 and 12.57. Besides, in data set [2] (SSCR01), the “Compatibility of base” value is on record as “Incompatible” and the “compatibility of the base” value is reported as “incompatible”.
Regarding `N#CC[C@H](C1CCCC1)n1cc(-c2ncnc3[nH]ccc23)cn1` [Ruxolitinib phosphate, ruxolitinib phosphate], the solubility at 24 h in “physchem” stood at 11.3 mg/mL.
Regarding `NC(CO)(CO)CO` [Tris], in data set [1] (setting [3]), the “Vehicle pH” value is on record as 10.08. Also, in data set [1] (setting [4]), the “Supernatant pH” value is given as 3.45. Moreover, the “Compatibility of base” value in data set [2] (SSAG01) and in data set [2] (SSNA01) was “Incompatible” each time. The figures for the “compatibility of the base” value in data set [2] (SSAG01) and in data set [2] (SSNA01) were “not compatible” and “incompatible”, respectively.
With Ethanolamine, in data set [1], the “Supernatant pH” value is 6.65 and 6.55 and 5.33; the “Vehicle pH” value is 10.27 and 12.25 and 11.52; the “apparent pH of SSCR01 following API addition with the named base” value stood at 5.33; the “apparent pH of SSNA01 following API addition with the named base” value is reported as “ca. 6.6”.
